Source: patent US20130109682A1, “CYCLIC ETHER COMPOUNDS USEFUL AS KINASE INHIBITORS” (NOVARTIS AG, priority 2010, published 2013)
pEC50, pIC50: −log10 of the molar value.

Key:
PDGFRaV561D kinase = PDGFRaV561D kinase (Homo sapiens, UniProt P16234, V561D); experiment: PDGFRaV561D kinase inhibition assay (LanthaScreen TR-FRET); format: biochemical; conditions: read-out: PDGFRa IC50
Outline: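 TR-FRET end-point assay with 4.4 nM PDGFRa V561D kinase, 50 nM polyEAY, 10 mM Mn and 2 μM ATP (f.c.) in Tris pH 7.4 buffer. After 1 h, EDTA stop and Tb-labeled P-20 antibody added; read after 45 min in the dark.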

[1] = tested on: KMS11 (human myeloma cell line); experiment: Cell proliferation assay (CellTiter-Glo), KMS11; format: cell-based; conditions: Homo sapiens, KMS-11; KMS11 cells, cell proliferation; read-out: KMS11-Luc EC50
Outline: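 EC50 derived from CellTiter-Glo luminescence after 3-day exposure at 37° C. Compound was diluted to 2× in medium and added to an equal volume of cells. KMS11 myeloma cells were plated on assay day at 2000/well in IMDM with 10% FBS and sodium pyruvate.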

GSK3β = GSK3β (Homo sapiens, UniProt P49841); experiment: GSK3β ATP depletion assay; format: biochemical; conditions: ATP depletion assay; read-out: GSK3b IC50
Outline: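 Kinase activity is read as ATP consumption: luciferase luminescence reports the ATP remaining once roughly half of the 2 μM ATP is used. Reaction mix: 5 nM GSK3β, 10 μM b-CREB peptide, 50 mM Tris pH 7.5, 15 mM MgCl2, 1 mM DTT, 0.1% BSA, 2.5% DMSO. Enzyme and peptide are preincubated 15 min before ATP is added.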

PKCα = PKCα (Homo sapiens, UniProt P17252); experiment: PKCα kinase Caliper assay; format: biochemical; conditions: PKCα Caliper assay; read-out: PKC IC50
Outline: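 Eight-point compound dilutions incubated with PKCα and peptide/ATP for 60 min at 30° C in 50 mM HEPES pH 7.5, 1 mM DTT, 0.02% Tween20, 0.02% BSA, 0.6% DMSO. Activity from phospho-peptide formed, separated by microfluidic mobility shift.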

Sequence of PDGFRaV561D kinase (P16234 24-1089 V561D): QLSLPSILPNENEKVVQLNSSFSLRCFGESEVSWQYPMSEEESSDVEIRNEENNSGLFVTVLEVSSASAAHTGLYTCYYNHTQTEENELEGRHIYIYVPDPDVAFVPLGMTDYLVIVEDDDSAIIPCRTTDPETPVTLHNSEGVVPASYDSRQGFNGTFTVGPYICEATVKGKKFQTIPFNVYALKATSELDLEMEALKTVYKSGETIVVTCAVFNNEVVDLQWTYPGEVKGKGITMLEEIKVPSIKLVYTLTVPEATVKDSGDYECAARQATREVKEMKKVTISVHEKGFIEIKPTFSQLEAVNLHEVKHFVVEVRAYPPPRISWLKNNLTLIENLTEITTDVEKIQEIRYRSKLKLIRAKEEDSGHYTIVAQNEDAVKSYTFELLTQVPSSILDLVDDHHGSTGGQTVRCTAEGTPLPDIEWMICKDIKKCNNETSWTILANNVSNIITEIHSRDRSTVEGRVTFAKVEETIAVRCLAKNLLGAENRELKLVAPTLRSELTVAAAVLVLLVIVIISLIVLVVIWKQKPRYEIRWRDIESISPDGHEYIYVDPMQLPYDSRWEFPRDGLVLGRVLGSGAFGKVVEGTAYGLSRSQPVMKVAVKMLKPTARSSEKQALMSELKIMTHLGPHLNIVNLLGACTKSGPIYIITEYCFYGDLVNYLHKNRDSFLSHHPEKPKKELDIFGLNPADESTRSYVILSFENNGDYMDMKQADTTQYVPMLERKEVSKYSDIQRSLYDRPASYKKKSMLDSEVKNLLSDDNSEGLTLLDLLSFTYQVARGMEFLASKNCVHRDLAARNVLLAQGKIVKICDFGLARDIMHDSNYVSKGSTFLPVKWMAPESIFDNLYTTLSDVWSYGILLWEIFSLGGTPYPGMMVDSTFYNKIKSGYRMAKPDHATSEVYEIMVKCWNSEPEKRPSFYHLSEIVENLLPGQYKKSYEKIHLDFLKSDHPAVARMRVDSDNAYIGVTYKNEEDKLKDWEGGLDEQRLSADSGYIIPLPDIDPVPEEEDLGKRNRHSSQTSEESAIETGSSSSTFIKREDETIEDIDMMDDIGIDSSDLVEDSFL
Sequence of GSK3β (P49841 whole entry, species assumed): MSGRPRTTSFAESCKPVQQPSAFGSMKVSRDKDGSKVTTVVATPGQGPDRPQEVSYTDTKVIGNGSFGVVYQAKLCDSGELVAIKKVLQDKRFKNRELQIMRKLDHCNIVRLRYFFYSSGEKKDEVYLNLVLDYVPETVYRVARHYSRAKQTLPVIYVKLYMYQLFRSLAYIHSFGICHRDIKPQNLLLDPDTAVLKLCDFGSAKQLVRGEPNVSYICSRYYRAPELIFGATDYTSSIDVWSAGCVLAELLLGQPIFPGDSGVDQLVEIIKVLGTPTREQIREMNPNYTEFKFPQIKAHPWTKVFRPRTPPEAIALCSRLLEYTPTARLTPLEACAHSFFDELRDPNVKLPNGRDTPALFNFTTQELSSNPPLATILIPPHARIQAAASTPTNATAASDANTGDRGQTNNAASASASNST

| pIC50 (PDGFRaV561D kinase) | pEC50 [1] | pIC50 (GSK3β) | pIC50 (PKCα) | Compound |
| --- | --- | --- | --- | --- |
| 7.43 | 5.69 | 7.89 | 7.12 | C[C@H]1O[C@@H](c2ccncc2NC(=O)c2nc(-c3ccccc3)cnc2N)C[C@@H](N)[C@]1(C)O [Example 228, 3-amino-N-(4-((2R,4R,5S,6R)-4-amino-5-hydroxy-5,6-dimethyltetrahydro-2H-pyran-2-yl)pyridin-3-yl)-6-phenylpyrazine-2-carboxamide] |
| 5.82 | 5.52 | 5.34 | 5.96 | N[C@H]1C[C@@H](c2ccncc2NC(=O)c2csc(-c3c(F)cccc3F)n2)O[C@H]2CCC[C@H]21 [Example 230, N-(4-((2S,4S,4aS,7aS)-4-aminooctahydrocyclopenta[b]pyran-2-yl)pyridin-3-yl)-2-(2,6-difluorophenyl)thiazole-4-carboxamide] |
| 7.85 | 6.23 | 8.12 | 7.51 | Nc1ncc(-c2ccccc2)nc1C(=O)Nc1cnccc1[C@H]1C[C@@H](N)[C@H]2CCC[C@H]2O1 [Example 199, 3-amino-N-(4-((2R,4R,4aR,7aR)-4-aminooctahydrocyclopenta[b]pyran-2-yl)pyridin-3-yl)-6-phenylpyrazine-2-carboxamide] |
| 6.85 | 6.11 | 7.41 | 7.15 | CC[C@@H]1O[C@H](c2ccncc2NC(=O)c2nc(-c3ccccc3)cnc2N)C[C@H](N)[C@H]1O [Example 342, 3-amino-N-(4-((2S,4S,5R,6S)-4-amino-6-ethyl-5-hydroxytetrahydro-2H-pyran-2-yl)pyridin-3-yl)-6-phenylpyrazine-2-carboxamide] |
